Laboratory results reported in patent US20190134004A1, “METHODS AND COMPOSITIONS FOR TREATING BREAST AND PROSTATE CANCER” (The University of Chicago, priority 2016, published 2019).
Entries after “also recorded” stand apart in the source; their conditions may differ.

What was measured:
[1] = system: GR binding sites; test: GR ChIP-seq in LAPC4 cells after addition of dexamethasone; format: cell-based, human
Description: The inventors recently discovered that within PC cells, activated GR can compensate transcriptionally for a large set of genes. […] In a companion experiment using chromatin immunoprecipitation followed by deep sequeicing (ChIP-seq) in LAPC4 cells, the addition of dexamethasone to activate the GR leads to ˜700 new unique GR binding sites, approximately 70 of these new sites are within 5 kilobase (kb) of the transctiption start site of known genes. This argues that the majority of GR chromatin binding and subsequent gene regulation is through regulation at more distant enhancer sites rather then through direct promoter site binding. As bromodomain proteins such as BRD4 cooperate with known transcription factors, including the GR, at such enhancers to enable gene regulation, the inventors sought to establish whether BRD4 and GR cooperate to regulate pro-survival genes in Enza-R CRPC.

[2] = system: LNCaP-EnzaR cells; test: Cell viability of LNCaP-EnzaR cells treated with R1881, enzalutamide, Dex with or without JQ1; format: cell-based, human; settings: 3 days
Protocol: FIG. 3. […] LNCaP-EnzR cells were treated for three days of R1881 and enzalutamide (RE), concurrently with vehicle, Dex (D) or D+JQ1. Error bars=standard error of mean. The bars, from left to right, correspond to RE, RED, and RED-JQ 1.
BET-inhibition decreases Enza-R survival in vitro despite dexamethasone. It has been reported that the BET inhibitor JQ1 (100-500 nM) can decrease Enza-R cell survival, potentially through inhibition of ligand independent AR splice variants.

[3] = system: Enza-R cells; settings: JQ1 100-500 nM; reported; cited from earlier work
[4] = system: GR (NR3C1) target gene expression; test: Dex-mediated GR target gene expression (KLK3, SGK1, FKBP5) with BET inhibition in LNCaP-EnzR cells; format: cell-based, human; settings: three days R1881 and enzalutamide, then Dex or Dex+JQ1, relative to RE, p<0.05
Protocol: FIG. 2. Dex-mediated GR (NR3C1) target gene expression decreased with BETinhibition. LNCaP-EnzR cells were treated for three days of R1881 and enzalutamide (RE), after which cells stimulated with Dex (D) or Dex+JQ1. All conditions relative to RE. Changes all significant p<0.05 with no change in GR expression across conditions. Each series of bars from left to right corresponds to data from RE, RED, and RED-JQl.
The inventors have also verified that the principal BET-BRD proteins inhibited by a BET inhibitor (ABT-075), BRD4 and BRD3 are expressed within the Enza-R CRPC cell lines. […] It was next sought to explore whether for specific, known GR-regulated in PC cells genes (KLK3, SGK1, FKBPS) the BET inhibitor tool compound JQ1 was able to decrease GR mediated gene expression.

SMILES	new unique GR binding sites [1]	viable cell numbers ([2]; dexamethasone 100 nM with R1881 1 nM and enzalutamide 10 μM)	viable cell numbers (Dex-mediated cell viability) ([2]; JQ1 500 nM with dexamethasone 100 nM, R1881 1 nM, enzalutamide 10 μM)	Enza-R cell survival [3]	GR mediated gene expression (KLK3, SGK1, FKBPS) [4]
C[C@@H]1C[C@H]2[C@@H]3CCC4=CC(=O)C=C[C@]4(C)[C@@]3(F)[C@@H](O)C[C@]2(C)[C@@]1(O)C(=O)CO [Dex, dexamethasone]	~700	increases			
Cc1sc2c(c1C)C(c1ccc(Cl)cc1)=N[C@@H](CC(=O)OC(C)(C)C)c1nnc(C)n1-2 [JQ1]			significantly decreased	can decrease	significantly countered; also recorded: decreased
